From US20260210939A1, “MODIFIED OLFACTORY RECEPTORS” (GIVAUDAN SA, priority 2022, published 2026)
Read-outs that look alike come from different tables or passages of the source. Values belong to the compound of their own block, whether it stands above or below them.

Columns and labels:
[1] = biological target: human class II OR identified in the library screening (Homo sapiens, UniProt P34982)
Target sequence in this assay (P34982 whole entry, the tested form may be a part): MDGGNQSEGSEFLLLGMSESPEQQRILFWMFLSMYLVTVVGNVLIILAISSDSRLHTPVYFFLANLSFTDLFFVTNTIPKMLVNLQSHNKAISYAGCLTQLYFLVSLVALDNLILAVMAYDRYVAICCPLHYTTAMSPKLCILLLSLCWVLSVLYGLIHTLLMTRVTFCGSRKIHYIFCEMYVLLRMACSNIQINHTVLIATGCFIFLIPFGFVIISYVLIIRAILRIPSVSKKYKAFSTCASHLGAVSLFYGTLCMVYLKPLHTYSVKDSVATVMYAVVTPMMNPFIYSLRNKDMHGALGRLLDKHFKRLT
Description: (§1) Selected ligand—OR pairs were then tested in a confirmatory test with a dose response analysis.
(§2) For selected receptors, the wild-type sequence was synthesized and cloned into pcDNA3.1 (+). Dose-response analysis with the cognate ligand was then performed for both the wild-type and the modified sequence.

[2] = test system: human class II OR identified in the library screening
Description: as §1, §2

[3] = biological target: human class II OR identified in the library screening (Homo sapiens, UniProt P34982); experiment: Confirmatory dose-response analysis of library-hit OR with cognate ligand, wild-type vs C-terminal domain SEQ ID NO: 221 (Table 17); conditions: read-out: Potency, EC50 changed C-term; OR1D2, modified C-terminus SEQ ID NO: 221 (SEQ ID NO: 336);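 note: Wild-type receptor sequences expressed from the pcDNA3.1(+) vector and compared with the C-terminally modified receptors in dose-response tests using each receptor's cognate ligand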
Target sequence in this assay (P34982 1-291): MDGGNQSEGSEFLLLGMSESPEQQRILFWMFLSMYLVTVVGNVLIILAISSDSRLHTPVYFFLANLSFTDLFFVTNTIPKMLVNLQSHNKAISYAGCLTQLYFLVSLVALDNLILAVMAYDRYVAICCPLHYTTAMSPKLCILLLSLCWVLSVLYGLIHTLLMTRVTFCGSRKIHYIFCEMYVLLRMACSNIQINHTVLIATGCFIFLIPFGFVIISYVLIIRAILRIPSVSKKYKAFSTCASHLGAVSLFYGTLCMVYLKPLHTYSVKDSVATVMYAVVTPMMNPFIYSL
Description: as §1, §2

[4] = test system: human class II OR identified in the library screening; experiment: as above; conditions: for Fold improvement efficacy: maximal induction; for EC50: read-out: Potency, EC50 changed C-term; for Detection threshold; Fold improvement efficacy: under detection threshold
Description: as §1, §2

OR7C1 [5] = biological target: T1, OR7C1 (Homo sapiens, UniProt O76099, D296E/G302K/M297V/R299D/T295K/V126I); experiment: CRE-luciferase assay, HEK293T cells expressing OR7C1 (wild-type / modified C-terminus); format: cell-based
T1 construct: Improved functional expression of modified OR-genes containing the truncated, optimized C-terminus; expressed in transfected cells; host or cells: HEK293T stably expressing human RTP1S(V227I) and RTP2(L220R)
T1 sequence (O76099 with tags, fused parts or gaps V126I/T295K/D296E/M297V/R299D/G302K): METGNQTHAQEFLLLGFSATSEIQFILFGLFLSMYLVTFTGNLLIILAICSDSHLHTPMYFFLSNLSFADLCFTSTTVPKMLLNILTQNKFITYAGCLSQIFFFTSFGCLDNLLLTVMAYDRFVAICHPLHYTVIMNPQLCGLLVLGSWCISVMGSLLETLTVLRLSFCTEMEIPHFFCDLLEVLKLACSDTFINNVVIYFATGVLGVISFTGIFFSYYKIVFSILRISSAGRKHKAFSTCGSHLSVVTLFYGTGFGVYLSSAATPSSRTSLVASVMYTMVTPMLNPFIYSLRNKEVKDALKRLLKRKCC
Description: To test for possible variants of the sequence […]CC (SEQ ID NO: 86) leading to similar improved functional expression, different point mutations were introduced into the first 16 amino acids of this sequence (corresponding to […], SEQ ID NO: 10) and the variants were fused after the TM7 with OR7C1. […] The test concentrations were selected to fall into the range of partial activity of the wild-type sequence.

OR7A17 and OR7C1 = experiment: Cells expressing one or both of OR7A17 and OR7C1 (C-terminal domain SEQ ID NO: 221), luciferase; format: cell-based, human
Description: In order to screen for a specific odor description, some or all members of a given set of OR which was identified to be specific for a given odor description as shown in example 25 can be combined in a screening for new odorants or new odorant mixtures. The screening on the different OR can be performed sequentially or in parallel assays with the individual OR of the OR set. Additionally, some or all of the OR of the OR set specific for the odor-description can also be co-expressed in a single cell line. Thus, to screen for woody-ambery molecules, cells were either separately or simultaneously transfected with two plasmids coding for the optimized OR7A17 and OR7C1 both with the C-terminal domain of SEQ ID NO: 221. […] Cells expressing both receptors become functional sensors for the Ambery-woody odor description and detect both ligands down to low concentrations.

OR7C1 [6] = biological target: T1, OR7C1; experiment: CRE-luciferase assay, HEK293T cells expressing OR7C1 (wild-type / modified C-terminus); format: cell-based; remark: listed apart in the source
[7] = biological target: human class II OR identified in the library screening (Homo sapiens, UniProt A6NM03, Y28C)
Description: as §1, §2

[8] = biological target: human class II OR identified in the library screening (Homo sapiens, UniProt A6NM03); experiment: Confirmatory dose-response analysis of library-hit OR with cognate ligand, wild-type vs C-terminal domain SEQ ID NO: 221 (Table 17); conditions: read-out: Potency, EC50 changed C-term; OR2AG2 (Y28C), modified C-terminus SEQ ID NO: 221 (SEQ ID NO: 379);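 note: Wild-type receptor sequences expressed from the pcDNA3.1(+) vector and compared with the C-terminally modified receptors in dose-response tests using each receptor's cognate ligand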
Description: as §1, §2

[9] = biological target: human class II OR identified in the library screening (Homo sapiens, UniProt O60403)
Description: as §1, §2

OR2T4 [10] = biological target: T2, OR2T4 (Homo sapiens, UniProt Q8NH00, D328E/G331D/M330K)
T2 sequence (Q8NH00 with tags, fused parts or gaps D328E/M330K/G331D): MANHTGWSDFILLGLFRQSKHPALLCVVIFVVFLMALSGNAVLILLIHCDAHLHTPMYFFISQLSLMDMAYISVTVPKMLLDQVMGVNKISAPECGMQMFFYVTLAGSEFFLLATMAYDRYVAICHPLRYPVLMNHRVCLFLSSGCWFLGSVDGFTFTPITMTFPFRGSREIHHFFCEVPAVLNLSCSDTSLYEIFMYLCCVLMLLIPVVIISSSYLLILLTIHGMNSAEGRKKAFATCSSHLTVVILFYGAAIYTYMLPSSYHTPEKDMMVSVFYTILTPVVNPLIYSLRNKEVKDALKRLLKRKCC

OR2T4 [11] = biological target: T2, OR2T4; experiment: cell-based
[12] = biological target: T3, human class II OR identified in the library screening (Homo sapiens, UniProt Q8NGP4)
T3 sequence (Q8NGP4 whole entry, the tested form may be a part): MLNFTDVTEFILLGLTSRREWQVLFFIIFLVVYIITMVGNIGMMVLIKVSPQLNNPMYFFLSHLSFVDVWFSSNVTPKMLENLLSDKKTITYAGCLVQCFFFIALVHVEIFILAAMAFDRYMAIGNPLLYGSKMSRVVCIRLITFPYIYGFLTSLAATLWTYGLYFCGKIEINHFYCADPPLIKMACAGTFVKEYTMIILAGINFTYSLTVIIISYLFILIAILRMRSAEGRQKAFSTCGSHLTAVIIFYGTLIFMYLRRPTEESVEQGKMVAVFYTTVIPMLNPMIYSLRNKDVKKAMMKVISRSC
Description: as §1, §2

[13] = biological target: human class II OR identified in the library screening (Homo sapiens, UniProt Q8NGP4); experiment: Confirmatory dose-response analysis of library-hit OR with cognate ligand, wild-type vs C-terminal domain SEQ ID NO: 221 (Table 17); conditions: read-out: Potency, EC50 changed C-term; OR5M3, modified C-terminus SEQ ID NO: 221 (SEQ ID NO: 559);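 note: Wild-type receptor sequences expressed from the pcDNA3.1(+) vector and compared with the C-terminally modified receptors in dose-response tests using each receptor's cognate ligand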
Target sequence in this assay (Q8NGP4 1-290): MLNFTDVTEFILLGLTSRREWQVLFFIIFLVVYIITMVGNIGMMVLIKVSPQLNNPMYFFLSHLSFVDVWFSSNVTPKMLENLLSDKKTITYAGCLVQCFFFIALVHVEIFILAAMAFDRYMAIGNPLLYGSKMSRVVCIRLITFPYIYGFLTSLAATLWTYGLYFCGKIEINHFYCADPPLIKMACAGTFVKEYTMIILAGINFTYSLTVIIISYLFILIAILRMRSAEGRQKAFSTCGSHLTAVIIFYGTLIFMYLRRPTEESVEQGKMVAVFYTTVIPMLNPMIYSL
Description: as §1, §2

[14] = biological target: T3, human class II OR identified in the library screening; experiment: as above
Description: as §1, §2

[15] = biological target: human class II OR identified in the library screening (Homo sapiens, UniProt Q8NH80)
Target sequence in this assay (Q8NH80 whole entry, the tested form may be a part): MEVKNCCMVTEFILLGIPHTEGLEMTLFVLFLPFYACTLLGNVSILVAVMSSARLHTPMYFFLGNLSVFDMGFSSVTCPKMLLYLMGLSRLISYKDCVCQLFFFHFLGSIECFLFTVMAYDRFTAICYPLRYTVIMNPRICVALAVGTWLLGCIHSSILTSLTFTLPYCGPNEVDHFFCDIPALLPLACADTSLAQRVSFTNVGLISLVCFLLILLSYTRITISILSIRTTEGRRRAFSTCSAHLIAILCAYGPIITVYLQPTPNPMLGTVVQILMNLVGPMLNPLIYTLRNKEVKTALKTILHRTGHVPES
Description: as §1, §2

[16] = biological target: human class II OR identified in the library screening (Homo sapiens, UniProt Q8NH80); experiment: Confirmatory dose-response analysis of library-hit OR with cognate ligand, wild-type vs C-terminal domain SEQ ID NO: 221 (Table 17); conditions: read-out: Potency, EC50 changed C-term; OR10D3, modified C-terminus SEQ ID NO: 221 (SEQ ID NO: 671);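 note: Wild-type receptor sequences expressed from the pcDNA3.1(+) vector and compared with the C-terminally modified receptors in dose-response tests using each receptor's cognate ligand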
Target sequence in this assay (Q8NH80 1-290): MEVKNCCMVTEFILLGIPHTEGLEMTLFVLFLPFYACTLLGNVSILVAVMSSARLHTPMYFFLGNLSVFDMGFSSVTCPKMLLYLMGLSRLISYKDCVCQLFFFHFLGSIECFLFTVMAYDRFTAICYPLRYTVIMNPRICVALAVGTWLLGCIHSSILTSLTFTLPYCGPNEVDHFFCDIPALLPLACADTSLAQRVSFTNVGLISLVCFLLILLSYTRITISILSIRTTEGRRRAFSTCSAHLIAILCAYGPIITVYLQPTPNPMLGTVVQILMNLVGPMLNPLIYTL
Description: as §1, §2

[17] = biological target: human class II OR identified in the library screening (Homo sapiens, UniProt A4D2G3)
Description: as §1, §2

[18] = biological target: human class II OR identified in the library screening (Homo sapiens, UniProt Q96R48)
Description: as §1, §2

[19] = biological target: human class II OR identified in the library screening (Homo sapiens, UniProt O76100)
Description: as §1, §2

[20] = biological target: human class II OR identified in the library screening (Homo sapiens, UniProt Q15622)
Description: as §1, §2

[21] = biological target: human class II OR identified in the library screening (Homo sapiens, UniProt Q8WZ84); experiment: Confirmatory dose-response analysis of library-hit OR with cognate ligand, wild-type vs C-terminal domain SEQ ID NO: 221 (Table 17); conditions: OR8D1, wild-type sequence
Description: as §1, §2

[22] = biological target: human class II OR identified in the library screening (Homo sapiens, UniProt Q8NGC4); experiment: as above; conditions: read-out: Potency, EC50 changed C-term; OR10G3 (S73G), modified C-terminus SEQ ID NO: 221 (SEQ ID NO: 673)
Description: as §1, §2

[23] = OR5M3, modified C-terminus SEQ ID NO: 221 vs wild-type
[24] = OR8D1, modified C-terminus SEQ ID NO: 221 (SEQ ID NO: 631)
[25] = OR8D1, modified C-terminus SEQ ID NO: 221 vs wild-type

Sequence of human class II OR identified in the library screening (Homo sapiens, UniProt Q8WZ84) (Q8WZ84 whole entry, the tested form may be a part): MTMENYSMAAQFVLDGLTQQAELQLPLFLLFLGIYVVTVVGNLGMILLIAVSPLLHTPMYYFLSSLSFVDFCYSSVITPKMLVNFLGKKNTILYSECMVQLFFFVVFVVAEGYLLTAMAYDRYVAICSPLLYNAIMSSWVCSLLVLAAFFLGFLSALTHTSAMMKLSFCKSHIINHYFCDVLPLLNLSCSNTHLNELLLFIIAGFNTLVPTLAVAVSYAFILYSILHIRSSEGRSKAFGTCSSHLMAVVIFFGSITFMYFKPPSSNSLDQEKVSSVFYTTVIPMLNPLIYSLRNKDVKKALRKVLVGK
Sequence of human class II OR identified in the library screening (Homo sapiens, UniProt O60403) (O60403 whole entry): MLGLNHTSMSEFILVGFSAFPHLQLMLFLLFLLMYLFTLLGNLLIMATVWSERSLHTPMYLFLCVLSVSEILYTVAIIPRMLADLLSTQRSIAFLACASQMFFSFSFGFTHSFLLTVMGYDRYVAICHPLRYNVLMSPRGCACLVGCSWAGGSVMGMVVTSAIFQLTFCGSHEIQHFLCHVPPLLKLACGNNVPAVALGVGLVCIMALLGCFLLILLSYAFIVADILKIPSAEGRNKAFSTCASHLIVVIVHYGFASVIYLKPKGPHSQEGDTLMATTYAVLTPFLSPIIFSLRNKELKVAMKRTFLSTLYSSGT
Sequence of human class II OR identified in the library screening (Homo sapiens, UniProt Q8NGC4) (Q8NGC4 1-291): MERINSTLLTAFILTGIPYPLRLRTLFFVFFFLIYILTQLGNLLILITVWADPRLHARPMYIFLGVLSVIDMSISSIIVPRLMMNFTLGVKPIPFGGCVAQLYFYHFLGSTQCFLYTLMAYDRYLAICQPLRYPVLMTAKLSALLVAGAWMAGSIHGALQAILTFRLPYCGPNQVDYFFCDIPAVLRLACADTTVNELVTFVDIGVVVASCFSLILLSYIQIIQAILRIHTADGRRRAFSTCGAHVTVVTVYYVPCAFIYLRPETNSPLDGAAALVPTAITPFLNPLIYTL
Sequence of human class II OR identified in the library screening (Homo sapiens, UniProt O76100) (O76100 whole entry): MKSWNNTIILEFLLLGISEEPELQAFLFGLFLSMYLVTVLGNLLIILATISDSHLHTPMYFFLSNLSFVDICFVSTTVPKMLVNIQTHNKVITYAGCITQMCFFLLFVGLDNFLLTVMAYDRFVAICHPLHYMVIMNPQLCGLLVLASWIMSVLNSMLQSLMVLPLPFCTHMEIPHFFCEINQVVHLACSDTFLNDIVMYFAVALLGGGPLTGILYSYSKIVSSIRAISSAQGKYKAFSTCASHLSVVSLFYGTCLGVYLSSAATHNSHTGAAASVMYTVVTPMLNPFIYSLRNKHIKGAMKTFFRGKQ
Sequence of human class II OR identified in the library screening (Homo sapiens, UniProt A6NM03) (A6NM03 1-292): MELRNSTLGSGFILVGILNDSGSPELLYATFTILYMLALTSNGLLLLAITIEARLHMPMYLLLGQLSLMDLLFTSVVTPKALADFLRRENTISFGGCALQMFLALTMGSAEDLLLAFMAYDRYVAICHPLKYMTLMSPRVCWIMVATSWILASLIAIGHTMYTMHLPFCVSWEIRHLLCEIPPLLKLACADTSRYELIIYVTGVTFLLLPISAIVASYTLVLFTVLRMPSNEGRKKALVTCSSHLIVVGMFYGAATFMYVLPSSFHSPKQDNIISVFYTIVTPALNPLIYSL
Sequence of human class II OR identified in the library screening (Homo sapiens, UniProt Q96R48) (Q96R48 whole entry): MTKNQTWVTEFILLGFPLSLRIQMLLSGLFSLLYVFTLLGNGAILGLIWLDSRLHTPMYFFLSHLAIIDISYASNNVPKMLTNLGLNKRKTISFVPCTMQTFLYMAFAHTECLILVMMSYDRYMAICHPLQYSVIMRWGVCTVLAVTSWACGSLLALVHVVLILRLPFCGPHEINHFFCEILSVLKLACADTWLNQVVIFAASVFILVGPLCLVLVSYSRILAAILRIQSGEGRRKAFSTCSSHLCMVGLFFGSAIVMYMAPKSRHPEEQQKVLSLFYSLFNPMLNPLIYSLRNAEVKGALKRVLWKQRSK
Sequence of human class II OR identified in the library screening (Homo sapiens, UniProt A4D2G3) (A4D2G3 whole entry): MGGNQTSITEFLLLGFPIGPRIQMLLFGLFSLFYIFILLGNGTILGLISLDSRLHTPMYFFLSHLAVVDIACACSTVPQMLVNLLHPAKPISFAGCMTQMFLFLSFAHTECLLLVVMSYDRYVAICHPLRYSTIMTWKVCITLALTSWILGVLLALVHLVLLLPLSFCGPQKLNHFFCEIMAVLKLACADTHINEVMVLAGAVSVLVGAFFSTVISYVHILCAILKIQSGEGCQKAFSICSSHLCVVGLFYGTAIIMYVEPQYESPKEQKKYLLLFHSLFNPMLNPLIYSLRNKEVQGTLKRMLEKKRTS
Sequence of human class II OR identified in the library screening (Homo sapiens, UniProt Q15622) (Q15622 whole entry, the tested form may be a part): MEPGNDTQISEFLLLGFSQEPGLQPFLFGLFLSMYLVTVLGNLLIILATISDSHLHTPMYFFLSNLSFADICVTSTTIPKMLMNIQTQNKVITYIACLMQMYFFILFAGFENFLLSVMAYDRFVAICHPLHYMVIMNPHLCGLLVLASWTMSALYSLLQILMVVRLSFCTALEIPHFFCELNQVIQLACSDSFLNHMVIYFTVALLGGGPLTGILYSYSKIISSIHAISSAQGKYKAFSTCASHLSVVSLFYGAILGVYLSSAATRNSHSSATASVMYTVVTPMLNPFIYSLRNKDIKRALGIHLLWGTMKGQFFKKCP
Sequence of human class II OR identified in the library screening (Homo sapiens, UniProt A6NM03, Y28C) (A6NM03 whole entry Y28C, the tested form may be a part): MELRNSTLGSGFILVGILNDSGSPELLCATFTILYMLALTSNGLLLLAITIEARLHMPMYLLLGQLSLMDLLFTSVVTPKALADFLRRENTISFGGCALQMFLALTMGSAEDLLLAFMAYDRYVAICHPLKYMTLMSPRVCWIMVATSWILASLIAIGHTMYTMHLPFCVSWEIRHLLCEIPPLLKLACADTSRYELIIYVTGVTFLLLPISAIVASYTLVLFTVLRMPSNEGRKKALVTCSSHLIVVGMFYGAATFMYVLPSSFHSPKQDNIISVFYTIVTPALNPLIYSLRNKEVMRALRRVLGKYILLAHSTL

Compound: CC/C(C)=C/CC[C@H](C)CCO [(E,S)-3,7-dimethylnon-6-en-1-ol]
- Detection threshold; concentration for 2-fold induction, wild-type [1]: no
- Detection threshold; concentration for 2-fold induction, changed C-term. [2]: 3.0 µM
- EC50 [3]: 34.6 µM
- Fold improvement efficacy ([4]; OR1D2, modified C-terminus SEQ ID NO: 221 vs wild-type): 14.9 fold

Compound: CC(CO)C1=C2C(C)(C)C3CCC2(C3)C(C)(C)CC1 (stereo not shown) [Ambermax]
- Comments on efficacy (OR7C1 [5]): 3.5-fold lower
- ligand specificity in cells expressing OR7A17 and/or OR7C1 (OR7A17 and OR7C1): specific ligand for OR7C1
- Detection threshold; concentration for 2-fold induction (OR7C1 [6]; changed C-term. SEQ ID NO: 86): 0.17 µM
- Fold-improvement potency (OR7C1 [6]; changed C-term. vs wild-type): 2.7
- Detection threshold; concentration for 2-fold induction (OR7C1 [6]; wild-type): 2.76 µM

Compound: O=C(OCc1ccccc1)c1ccccc1O [Benzyl salicylate]
- Detection threshold; concentration for 2-fold induction, wild-type [7]: no
- Detection threshold; concentration for 2-fold induction, changed C-term. [2]: 1.3 µM
- EC50 [8]: 4.5 µM
- Fold improvement efficacy ([4]; OR2AG2 (Y28C), modified C-terminus SEQ ID NO: 221 vs wild-type): 10.2 fold

- Detection threshold; concentration for 2-fold induction, wild-type [9]: no
- Detection threshold; concentration for 2-fold induction, changed C-term. [2]: 108.6 µM
- EC50 ([4]; OR10H2, modified C-terminus SEQ ID NO: 221 (SEQ ID NO: 680)): 226 µM
Compound: CC(C)c1ccc2c(c1)OCC(=O)CO2 [Cascalone]
- Fold improvement efficacy ([4]; OR10H2, modified C-terminus SEQ ID NO: 221 vs wild-type): 7.0 fold

Compound: SC1CCCC1 [Cyclopentanethiol, reference compound]
- Comments on efficacy (OR2T4 [10]): No induction
- ligand identification in sulfur odorant screen (OR2T4 [10]; OR2T4 with optimized C-terminus SEQ ID NO: 86): good ligands
- Fold-improvement potency (OR2T4 [10]; changed C-term. vs wild-type): >>22
- Fold-improvement threshold (OR2T4 [10]; changed C-term. vs wild-type): >>100
- EC50 (OR2T4 [11]): > 316 µM

Compound: CC1=C(O)C(=O)C(C)O1 (stereo not shown) [Furaneol]
- Detection threshold; concentration for 2-fold induction, wild-type [12]: 30.5 µM
- Detection threshold; concentration for 2-fold induction, changed C-term. [2]: 0.3 µM
- EC50 [13]: 8.7 µM
- EC50 [14]: 65.3 µM
- Potency, Fold-improvement ([4]; OR5M3, EC50 modified C-terminus SEQ ID NO: 221 vs wild-type): 7.5 fold
- Fold improvement efficacy [4, 23]: 16.8 fold
- Detection threshold; Fold improvement efficacy [4, 23]: 100.7 fold

Compound: CC=Cc1ccc(O)c(OC)c1 [Isoeugenol]
- Detection threshold; concentration for 2-fold induction, wild-type [15]: no
- Detection threshold; concentration for 2-fold induction, changed C-term. [2]: 1.4 µM
- EC50 [16]: 8.4 µM
- Fold improvement efficacy ([4]; OR10D3, modified C-terminus SEQ ID NO: 221 vs wild-type): 6.1 fold

- Detection threshold; concentration for 2-fold induction, wild-type [17]: no
- Detection threshold; concentration for 2-fold induction, wild-type [18]: no
- EC50 ([4]; OR2A5, modified C-terminus SEQ ID NO: 221 (SEQ ID NO: 374)): 18 µM
- EC50 ([4]; OR2A25, modified C-terminus SEQ ID NO: 221 (SEQ ID NO: 370)): 11 µM
Compound: CC(C)=CCC(C)C1CC1(C)CO (stereo not shown) [Rosyfolia]
- Fold improvement efficacy ([4]; OR2A5, modified C-terminus SEQ ID NO: 221 vs wild-type): 3.0 fold
- Fold improvement efficacy ([4]; OR2A25, modified C-terminus SEQ ID NO: 221 vs wild-type): 7.6 fold

- Detection threshold; concentration for 2-fold induction, wild-type [19]: no
- Detection threshold; concentration for 2-fold induction, wild-type [20]: no
- EC50 ([4]; OR7A5, modified C-terminus SEQ ID NO: 221 (SEQ ID NO: 612)): 5.6 µM
- EC50 ([4]; OR7A10, modified C-terminus SEQ ID NO: 221 (SEQ ID NO: 610)): 0.16 µM
Compound: C=C(C)[C@@H]1CC[C@H](C)C2=C(C1)[C@@H](C)CC2=O [Rotundone]
- Fold improvement efficacy ([4]; OR7A5, modified C-terminus SEQ ID NO: 221 vs wild-type): 24. fold
- Fold improvement efficacy ([4]; OR7A10, modified C-terminus SEQ ID NO: 221 vs wild-type): 5.9 fold

Compound: CC1=C(O)C(=O)OC1C (stereo not shown) [Sotolone]
- Detection threshold; concentration for 2-fold induction, wild-type [21]: 2.5 µM
- Potency, Fold-improvement ([4]; OR8D1, EC50 modified C-terminus SEQ ID NO: 221 vs wild-type): 2.5 fold
- Detection threshold; concentration for 2-fold induction, changed C-term. [4, 24]: 0.48 µM
- Fold improvement efficacy [4, 25]: 2.1 fold
- Detection threshold; Fold improvement efficacy [4, 25]: 5.2 fold
- EC50 [4, 24]: 7.5 µM

Compound: COc1cc(C=O)ccc1O [Vanillin]
- EC50 [22]: 15.3 µM
